{"source": "paper PMC8989888", "about": "“Development of optimized drug-like small molecule inhibitors of the SARS-CoV-2 3CL protease for treatment of COVID-19” (Nature Communications, 2022)", "key": {"MMP 1": {"target": "MMP 1 (Homo sapiens, UniProt P03956)", "sequence (P03956 100-268)": "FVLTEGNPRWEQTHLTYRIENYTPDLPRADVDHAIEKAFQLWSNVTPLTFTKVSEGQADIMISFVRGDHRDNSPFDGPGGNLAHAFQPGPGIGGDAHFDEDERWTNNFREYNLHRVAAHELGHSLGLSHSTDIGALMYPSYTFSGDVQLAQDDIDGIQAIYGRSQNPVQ", "test": "biochemical"}, "Thrombin a": {"target": "Thrombin a (Homo sapiens, UniProt P00734)", "test": "biochemical"}, "Urokinase": {"target": "Urokinase (Homo sapiens, UniProt P00749)", "test": "biochemical"}, "[1]": {"test_system": "Influenza A H1N1 (strain: California/07/2009)", "test": "microbe, parasite or virus in culture", "type": "cell-based"}, "Factor Xa": {"target": "Factor Xa (Homo sapiens, UniProt P00742)", "sequence (P00742 235-488)": "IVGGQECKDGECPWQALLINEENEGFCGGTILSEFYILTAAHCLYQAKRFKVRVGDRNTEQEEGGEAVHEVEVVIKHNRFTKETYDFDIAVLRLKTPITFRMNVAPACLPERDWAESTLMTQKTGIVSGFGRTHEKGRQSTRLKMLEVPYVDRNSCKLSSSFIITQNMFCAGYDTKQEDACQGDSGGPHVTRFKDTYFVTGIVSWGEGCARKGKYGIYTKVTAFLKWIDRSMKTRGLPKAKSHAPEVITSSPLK", "sequence (P00742 41-179)": "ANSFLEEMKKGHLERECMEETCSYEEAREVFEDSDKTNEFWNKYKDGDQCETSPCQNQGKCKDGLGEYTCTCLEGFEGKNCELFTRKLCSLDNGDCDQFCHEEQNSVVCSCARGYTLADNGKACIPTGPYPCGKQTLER", "test": "biochemical"}, "[2]": {"test_system": "Human coronavirus alpha (strain: 229E)", "test": "organism not typed", "type": "cell-based, HCoV-229E", "settings": "Huh-7, read-out: EC50, human coronavirus 229E"}, "PLpro": {"target": "PLpro (Severe acute respiratory syndrome coronavirus 2, UniProt P0DTD1)", "test": "Protease selectivity panel: PLpro", "type": "biochemical", "settings": "SARS-CoV-2 recombinant"}, "SARS-CoV-2 [3]": {"test_system": "SARS-CoV-2", "test": "microbe, parasite or virus in culture", "type": "cell-based"}, "Trypsin": {"target": "Trypsin (Bos taurus, UniProt P00760)", "sequence (P00760 24-246)": "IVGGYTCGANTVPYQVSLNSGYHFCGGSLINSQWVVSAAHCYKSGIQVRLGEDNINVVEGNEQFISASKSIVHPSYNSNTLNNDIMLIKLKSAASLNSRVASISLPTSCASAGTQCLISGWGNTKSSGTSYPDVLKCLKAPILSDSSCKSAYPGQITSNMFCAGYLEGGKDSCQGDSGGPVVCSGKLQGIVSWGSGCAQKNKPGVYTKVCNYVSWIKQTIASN", "test": "Protease selectivity panel: Trypsin", "type": "biochemical", "settings": "Bovine pancreas"}, "TMPRSS2": {"target": "TMPRSS2 (Homo sapiens, UniProt O15393)", "sequence (O15393 106-492)": "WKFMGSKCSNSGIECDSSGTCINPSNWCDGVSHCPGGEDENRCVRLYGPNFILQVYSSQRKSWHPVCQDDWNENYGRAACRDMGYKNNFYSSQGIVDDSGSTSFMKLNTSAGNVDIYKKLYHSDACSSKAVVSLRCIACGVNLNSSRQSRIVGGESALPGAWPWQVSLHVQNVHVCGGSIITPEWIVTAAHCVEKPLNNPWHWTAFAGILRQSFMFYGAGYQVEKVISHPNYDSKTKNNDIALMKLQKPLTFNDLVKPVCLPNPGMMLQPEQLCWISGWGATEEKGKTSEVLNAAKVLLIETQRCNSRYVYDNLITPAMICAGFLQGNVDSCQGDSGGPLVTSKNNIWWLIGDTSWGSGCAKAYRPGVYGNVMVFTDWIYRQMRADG", "test": "biochemical"}, "Cathepsin L": {"target": "T1, Cathepsin L (Homo sapiens, UniProt P07711)", "T1 construct": "Human liver; from tissue; host or cells: human liver", "T1 sequence (P07711 114-333)": "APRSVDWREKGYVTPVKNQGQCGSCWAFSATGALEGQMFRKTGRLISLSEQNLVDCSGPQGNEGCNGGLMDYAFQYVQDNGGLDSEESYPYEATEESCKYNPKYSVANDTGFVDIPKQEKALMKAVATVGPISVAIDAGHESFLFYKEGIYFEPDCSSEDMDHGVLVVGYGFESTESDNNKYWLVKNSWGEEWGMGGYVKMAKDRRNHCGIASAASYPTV", "test": "Protease selectivity panel: Cathepsin L", "type": "biochemical"}, "Cathepsin S": {"target": "Cathepsin S (Homo sapiens, UniProt P25774)", "sequence (P25774 115-331)": "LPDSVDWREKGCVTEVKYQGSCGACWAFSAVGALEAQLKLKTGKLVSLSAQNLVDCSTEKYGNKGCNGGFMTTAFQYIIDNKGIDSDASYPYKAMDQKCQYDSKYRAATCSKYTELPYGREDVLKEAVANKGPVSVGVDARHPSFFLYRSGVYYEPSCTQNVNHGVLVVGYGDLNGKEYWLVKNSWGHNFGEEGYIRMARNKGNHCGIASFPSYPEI", "test": "Protease selectivity panel: Cathepsin S"}, "SARS-CoV-2 3CL protease [4]": {"target": "T2, SARS-CoV-2 3CL protease (Severe acute respiratory syndrome coronavirus 2, UniProt P0DTD1)", "test": "biochemical"}, "Elastase": {"target": "Elastase (Homo sapiens, UniProt P08246)", "sequence (P08246 30-267)": "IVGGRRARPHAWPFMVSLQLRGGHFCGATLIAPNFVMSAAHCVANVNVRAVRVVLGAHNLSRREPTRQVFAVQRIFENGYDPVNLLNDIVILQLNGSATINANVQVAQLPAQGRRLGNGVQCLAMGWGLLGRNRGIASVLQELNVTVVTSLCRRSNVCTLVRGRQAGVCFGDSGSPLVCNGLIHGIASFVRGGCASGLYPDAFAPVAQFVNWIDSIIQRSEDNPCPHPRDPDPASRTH", "test": "biochemical"}, "Caspase 8": {"target": "Caspase 8 (Homo sapiens, UniProt Q14790)", "sequence (Q14790 217-479)": "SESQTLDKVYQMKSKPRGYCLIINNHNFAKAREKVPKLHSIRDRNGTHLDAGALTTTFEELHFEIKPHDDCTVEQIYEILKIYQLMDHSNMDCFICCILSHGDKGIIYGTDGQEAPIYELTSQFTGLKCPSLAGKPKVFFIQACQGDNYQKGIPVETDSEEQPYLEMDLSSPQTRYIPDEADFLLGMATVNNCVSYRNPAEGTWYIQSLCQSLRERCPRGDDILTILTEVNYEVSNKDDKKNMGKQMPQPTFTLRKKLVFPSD", "test": "biochemical"}, "Furin": {"target": "Furin (Homo sapiens, UniProt P09958)", "sequence (P09958 108-715)": "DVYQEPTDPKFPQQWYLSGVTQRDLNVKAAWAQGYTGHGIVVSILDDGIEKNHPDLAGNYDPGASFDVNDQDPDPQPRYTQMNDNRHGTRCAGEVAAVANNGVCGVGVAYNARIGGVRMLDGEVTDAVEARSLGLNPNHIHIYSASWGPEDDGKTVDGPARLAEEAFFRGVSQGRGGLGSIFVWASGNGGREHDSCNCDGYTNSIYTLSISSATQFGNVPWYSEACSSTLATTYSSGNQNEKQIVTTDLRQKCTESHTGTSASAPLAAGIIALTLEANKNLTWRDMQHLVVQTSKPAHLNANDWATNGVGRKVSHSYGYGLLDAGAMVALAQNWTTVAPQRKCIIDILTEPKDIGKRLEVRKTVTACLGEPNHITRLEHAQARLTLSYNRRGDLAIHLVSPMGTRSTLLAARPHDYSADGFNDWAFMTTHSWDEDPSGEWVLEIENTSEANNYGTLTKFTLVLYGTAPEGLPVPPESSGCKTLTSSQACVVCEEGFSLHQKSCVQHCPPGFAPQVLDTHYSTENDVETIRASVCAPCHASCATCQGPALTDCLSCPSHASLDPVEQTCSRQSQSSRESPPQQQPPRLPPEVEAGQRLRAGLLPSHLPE", "test": "biochemical"}, "SARS-CoV-2 [5]": {"test_system": "SARS-CoV-2", "test": "microbe, parasite or virus in culture", "settings": "Severe acute respiratory syndrome coronavirus 2, Caco-2, 72 h, read-out: SARS-CoV-2 Caco-2 EC90"}, "SARS-CoV-2 [6]": {"target": "SARS-CoV-2", "test": "cell-based"}, "ACE2": {"target": "ACE2 (Homo sapiens, UniProt Q9BYF1)", "sequence (Q9BYF1 18-740)": "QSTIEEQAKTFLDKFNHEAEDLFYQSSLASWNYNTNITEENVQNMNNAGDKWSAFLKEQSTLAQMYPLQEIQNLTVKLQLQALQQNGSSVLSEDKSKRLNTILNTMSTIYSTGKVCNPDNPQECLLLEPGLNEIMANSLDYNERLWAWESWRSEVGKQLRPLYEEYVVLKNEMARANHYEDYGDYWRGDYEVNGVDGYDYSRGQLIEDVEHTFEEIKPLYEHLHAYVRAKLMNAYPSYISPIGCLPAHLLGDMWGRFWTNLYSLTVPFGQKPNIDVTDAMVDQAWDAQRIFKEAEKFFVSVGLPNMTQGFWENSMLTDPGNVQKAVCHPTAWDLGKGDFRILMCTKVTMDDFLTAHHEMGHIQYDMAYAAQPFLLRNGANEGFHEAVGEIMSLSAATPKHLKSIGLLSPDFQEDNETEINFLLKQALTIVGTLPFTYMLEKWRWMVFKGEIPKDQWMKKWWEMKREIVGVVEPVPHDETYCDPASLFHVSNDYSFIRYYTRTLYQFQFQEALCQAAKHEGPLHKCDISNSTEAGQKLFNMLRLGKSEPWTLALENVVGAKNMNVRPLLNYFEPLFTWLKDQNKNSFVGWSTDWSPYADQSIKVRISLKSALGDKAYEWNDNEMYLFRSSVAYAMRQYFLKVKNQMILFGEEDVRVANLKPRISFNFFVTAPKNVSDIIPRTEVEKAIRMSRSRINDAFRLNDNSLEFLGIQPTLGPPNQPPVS", "test": "biochemical"}, "SARS-CoV-2 [7]": {"test_system": "SARS-CoV-2", "test": "microbe, parasite or virus in culture", "type": "cell-based", "settings": "Severe acute respiratory syndrome coronavirus 2, read-out: SARS-CoV-2 EC50"}, "[8]": {"test_system": "Human coronavirus beta (strain: OC43)", "test": "organism not typed", "type": "cell-based, HCoV-OC43", "settings": "Huh-7, read-out: EC50, human coronavirus OC43"}, "ACE1": {"target": "ACE1 (Homo sapiens, UniProt P12821)", "sequence (P12821 30-1261)": "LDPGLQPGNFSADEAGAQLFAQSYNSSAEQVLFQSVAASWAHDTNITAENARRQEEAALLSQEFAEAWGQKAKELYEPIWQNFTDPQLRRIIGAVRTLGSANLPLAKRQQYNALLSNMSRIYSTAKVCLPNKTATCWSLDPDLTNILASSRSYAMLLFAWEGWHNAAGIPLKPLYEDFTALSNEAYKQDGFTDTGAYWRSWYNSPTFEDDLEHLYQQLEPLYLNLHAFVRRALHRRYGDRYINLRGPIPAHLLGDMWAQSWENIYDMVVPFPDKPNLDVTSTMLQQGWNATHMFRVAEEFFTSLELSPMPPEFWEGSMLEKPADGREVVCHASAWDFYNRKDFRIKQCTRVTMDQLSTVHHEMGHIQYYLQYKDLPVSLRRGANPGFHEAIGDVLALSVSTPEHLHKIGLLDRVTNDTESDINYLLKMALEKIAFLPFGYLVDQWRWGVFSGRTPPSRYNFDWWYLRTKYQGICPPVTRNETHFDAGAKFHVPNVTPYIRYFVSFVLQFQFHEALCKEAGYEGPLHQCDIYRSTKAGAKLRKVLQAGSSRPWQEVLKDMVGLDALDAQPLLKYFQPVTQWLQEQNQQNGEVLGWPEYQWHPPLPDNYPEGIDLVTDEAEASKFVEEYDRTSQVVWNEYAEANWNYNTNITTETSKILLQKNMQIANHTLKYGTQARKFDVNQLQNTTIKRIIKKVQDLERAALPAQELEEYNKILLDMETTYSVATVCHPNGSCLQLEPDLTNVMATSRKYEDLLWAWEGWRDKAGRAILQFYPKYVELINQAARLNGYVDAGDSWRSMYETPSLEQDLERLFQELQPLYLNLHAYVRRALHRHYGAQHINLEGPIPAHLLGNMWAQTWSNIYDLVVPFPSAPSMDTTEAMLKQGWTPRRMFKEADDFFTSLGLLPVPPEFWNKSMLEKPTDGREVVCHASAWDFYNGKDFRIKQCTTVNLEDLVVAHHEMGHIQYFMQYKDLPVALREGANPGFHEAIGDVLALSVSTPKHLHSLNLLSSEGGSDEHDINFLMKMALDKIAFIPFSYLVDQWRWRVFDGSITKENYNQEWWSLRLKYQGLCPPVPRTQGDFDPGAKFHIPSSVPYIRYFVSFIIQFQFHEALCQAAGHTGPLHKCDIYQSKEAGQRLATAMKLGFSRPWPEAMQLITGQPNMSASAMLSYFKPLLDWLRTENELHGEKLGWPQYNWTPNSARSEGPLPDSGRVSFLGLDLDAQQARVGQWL", "test": "biochemical"}, "SARS-CoV-2 3CL protease [9]": {"target": "T2, SARS-CoV-2 3CL protease", "test": "biochemical", "remark": "listed apart in the source"}, "Cathepsin B": {"target": "Cathepsin B (Homo sapiens, UniProt P07858)", "test": "biochemical"}, "[10]": {"test_system": "SARS coronavirus (strain: Urbani)", "test": "organism not typed", "type": "cell-based, SARS-CoV"}, "Cathepsin K": {"target": "Cathepsin K (Homo sapiens, UniProt P43235)", "sequence (P43235 115-329)": "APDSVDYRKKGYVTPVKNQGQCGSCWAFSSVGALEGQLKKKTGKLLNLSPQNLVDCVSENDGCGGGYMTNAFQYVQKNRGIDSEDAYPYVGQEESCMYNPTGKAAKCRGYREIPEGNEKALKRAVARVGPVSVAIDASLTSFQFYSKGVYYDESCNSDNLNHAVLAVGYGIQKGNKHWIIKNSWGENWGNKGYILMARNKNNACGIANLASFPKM", "test": "Protease selectivity panel: Cathepsin K"}, "SARS-CoV-2 [11]": {"test_system": "SARS-CoV-2", "test": "microbe, parasite or virus in culture", "type": "cell-based", "settings": "Severe acute respiratory syndrome coronavirus 2, Vero C1008, read-out: SARS-CoV-2 Vero E6 EC50"}}, "note": "Several values for one entry are separate records, joined by “and”; a condition that tells them apart may be missing. Equal entries are not always repeated. Where two headings read alike, the source gives them in different places."}
{"smiles": "CC(C)C[C@H](NC(=O)OCc1ccccc1Cl)C(=O)N[C@@H](C[C@@H]1CCNC1=O)C(O)S(=O)(=O)O", "note": "(some centres unmarked) [EB54]", "values": [{"measurement": "IC50", "setting": "MMP 1", "value": "> 100", "unit": "µM"}, {"measurement": "IC50", "setting": "Thrombin a", "value": "> 100", "unit": "µM"}, {"measurement": "IC50", "setting": "Urokinase", "value": "> 100", "unit": "µM"}, {"measurement": "effect on replication of Influenza H1N1 (in words)", "setting": "[1]", "value": "no effect was observed"}, {"measurement": "EC50", "setting": "[1]; Influenza A virus, H1N1, MDCK, read-out: Influenza A (H1N1) MDCK EC50", "value": "> 100", "unit": "µM"}, {"measurement": "IC50", "setting": "Factor Xa", "value": "> 100", "unit": "µM"}, {"measurement": "EC50", "setting": "[2]", "value": "< 0.1", "unit": "µM"}, {"measurement": "IC50", "setting": "PLpro", "value": "> 100", "unit": "µM"}, {"measurement": "inhibition of SARS-CoV-2 (Figure s17b dose-response, replicate values)", "setting": "SARS-CoV-2 [3]", "value": "99.8698 and 98.0961 and 101.644 and 87.6327 and 101.522 and 73.7431 and 78.1084 and 77.7143 and 78.5024 and 57.3714 and 60.2928 and 54.45 and 31.9222 and 32.9312 and 30.9133 and 24.3408 and 28.9565 and 19.7251 and 10.4228 and 9.535 and 11.3102"}, {"measurement": "EC50", "setting": "SARS-CoV-2 [3]; Severe acute respiratory syndrome coronavirus 2, 24 h, read-out: SARS-CoV-2 Huh-7ACE2 EC50", "value": 0.005, "unit": "µM"}, {"measurement": "IC50", "setting": "Trypsin", "value": "> 100", "unit": "µM"}, {"measurement": "IC50", "setting": "TMPRSS2", "value": "> 100", "unit": "µM"}, {"measurement": "IC50", "setting": "Cathepsin L; Human liver, substrate 1 (Z-FR-AMC), […] Cathepsin L, read-out: IC50", "value": 0.001, "unit": "µM"}, {"measurement": "IC50", "setting": "Cathepsin L; Human liver, substrate 2 (MCA-PLGL-Dap(Dnp)-AR-NH2), 0.5 nM Cathepsin L, read-out: IC50", "value": 0.006, "unit": "µM"}, {"measurement": "IC50", "setting": "Cathepsin L; read-out: IC50 on human cathepsin L", "value": 0.001, "unit": "µM"}, {"measurement": "IC50", "setting": "Cathepsin S", "value": 0.006, "unit": "µM"}, {"measurement": "observed inactivation rate vs compound concentration (Figure S19, replicate values)", "setting": "SARS-CoV-2 3CL protease [4]", "value": "0.0534 and -0.00333 and 0.0463 and 0.0575 and 0.0117 and 0.0408 and 0.0199 and 0.0198 and 0.0352 and 0.0468 and 0.0351 and 0.0076"}, {"measurement": "kinact/KI", "setting": "SARS-CoV-2 3CL protease [4]; read-out: SARS-CoV-2 3CLpro kinact/KI", "value": 88300, "unit": "M⁻¹ s⁻¹"}, {"measurement": "IC50", "setting": "Elastase", "value": "> 100", "unit": "µM"}, {"measurement": "IC50", "setting": "Caspase 8", "value": 52, "unit": "µM"}, {"measurement": "IC50", "setting": "Furin", "value": "> 100", "unit": "µM"}, {"measurement": "EC90", "setting": "SARS-CoV-2 [5]", "value": 0.19, "unit": "µM"}, {"measurement": "EC50", "setting": "SARS-CoV-2 [6]", "value": 1.2, "unit": "µM"}, {"measurement": "IC50", "setting": "ACE2", "value": "> 100", "unit": "µM"}, {"measurement": "EC50", "setting": "SARS-CoV-2 [7]", "value": 0.028, "unit": "µM"}, {"measurement": "EC50", "setting": "[8]", "value": "< 0.1", "unit": "µM"}, {"measurement": "CC50", "setting": "in vitro", "value": "> 100", "unit": "µM"}, {"measurement": "IC50", "setting": "ACE1", "value": "> 100", "unit": "µM"}, {"measurement": "IC50", "setting": "SARS-CoV-2 3CL protease [9]; 20 nM protease, read-out: SARS-CoV-2 3CLpro IC50", "value": 0.029, "unit": "µM"}, {"measurement": "normalized activity, dose-response curve (Figure S16)", "setting": "SARS-CoV-2 3CL protease [9]; Concentration of inhibitor (nM) 0.19382", "value": "97.3415 and 94.0287"}, {"measurement": "normalized activity, dose-response curve (Figure S16)", "setting": "SARS-CoV-2 3CL protease [9]; Concentration of inhibitor (nM) 0.49485", "value": "94.642 and 94.4552"}, {"measurement": "normalized activity, dose-response curve (Figure S16)", "setting": "SARS-CoV-2 3CL protease [9]; Concentration of inhibitor (nM) 0.79588", "value": "92.0244 and 86.0411"}, {"measurement": "normalized activity, dose-response curve (Figure S16)", "setting": "SARS-CoV-2 3CL protease [9]; Concentration of inhibitor (nM) 1.09691", "value": "76.1141 and 67.8169"}, {"measurement": "normalized activity, dose-response curve (Figure S16)", "setting": "SARS-CoV-2 3CL protease [9]; Concentration of inhibitor (nM) 1.39794", "value": "59.5493 and 51.609"}, {"measurement": "normalized activity, dose-response curve (Figure S16)", "setting": "SARS-CoV-2 3CL protease [9]; Concentration of inhibitor (nM) 1.69897", "value": "35.2953 and 26.9095"}, {"measurement": "normalized activity, dose-response curve (Figure S16)", "setting": "SARS-CoV-2 3CL protease [9]; Concentration of inhibitor (nM) 2.30103", "value": "1.552 and 1.745"}, {"measurement": "normalized activity, dose-response curve (Figure S16)", "setting": "SARS-CoV-2 3CL protease [9]; Concentration of inhibitor (nM) 2.60206", "value": "1.143 and 0.9691"}, {"measurement": "normalized activity, dose-response curve (Figure S16)", "setting": "SARS-CoV-2 3CL protease [9]; Concentration of inhibitor (nM) -0.10721", "value": "100.286 and 100.194"}, {"measurement": "normalized activity, dose-response curve (Figure S16)", "setting": "SARS-CoV-2 3CL protease [9]; Concentration of inhibitor (nM) -0.40824", "value": 100}, {"measurement": "IC50", "setting": "Cathepsin B", "value": 0.35, "unit": "µM"}, {"measurement": "EC50", "setting": "[10]; Vero 76, read-out: SARS-CoV Vero 76 EC50", "value": "< 3", "unit": "µM"}, {"measurement": "EC50", "setting": "[10]; read-out: SARS-CoV Vero 76 EC50", "value": 2.4, "unit": "µM"}, {"measurement": "IC50", "setting": "Cathepsin K", "value": 0.02, "unit": "µM"}, {"measurement": "EC50", "setting": "SARS-CoV-2 [11]", "value": 2, "unit": "µM"}]}
